The source of these data is PMC4351150 (Cancer immunology research, 2015).

For one test, the target named is HLA-A*02:01 (Homo sapiens, UniProt P04439, D140Y/D185E/D98H/E176V/E277Q/G131W/G231S/I119V/I121R/I166T/I218V/L300P/L318F/N151K/N90K/P208A/P217A/Q86G/Q94H/R138H/R169H/T345S). Description: iTopia binding affinity assay.
The next test has as its system CD8^+ cells. It counts as cell-based. Conditions: UNC-CDK4-1-pulsed T2 cells as stimulators; % of CD8^+ cells (Supplementary Figure 1).
Test [1] deals with CD8^+ T cells of HLA-A*02:01-expressing post-SCT AML patients. Description: PE-peptide/HLA-A*02:01 tetramer flow cytometry of post-SCT AML patient PBMCs. Format: cell-based.
Test [2] has as its system CD8^+ TCRβ repertoire of Patient 5. Description: Bulk TCRβ repertoire sequencing: mapping of tetramer-associated TCRβ clonotypes. Also on record: species or system human. Conditions: for total share of tetramer-associated TCRβ clonotypes in TCRβ repertoire: Patient 5, sample 2 months later, 3×10^6 CD8^+ cells, Illumina HiSeq.

“And” between values parts separate entries of the source, which are not always exact repeats. Equal values may be shown once.

Turning to ALTPVVVTL [UNC-CDK4-1], on HLA-A*02:01, the “binding affinity to HLA-A*02:01” value is “high affinity to HLA-A*02:01”. In addition, in the test with CD8^+ cells, the “CD8^+ cells specific for UNC-CDK4-1” value was 0.2%. Besides, in test [1] (3 of 6 post-SCT AML patients, PE-UNC-CDK4-1/HLA-A*02:01 tetramer, 4°C, 25 minutes, threshold >0.01%), the “tetramer frequency, % of CD8^+ cells (positive patients)” value is reported as greater than 0.01%. In addition, the “tetramer^+ T-cell population frequency in Patient 5” value in test [1] (Patient 5, day +567 post-SCT, CMV seropositive, not viremic) amounted to 0.04%. The “total share of tetramer-associated TCRβ clonotypes in TCRβ repertoire” value in test [2] was > 17% and 17.1%. Moreover, in test [2] (clonotype frequency in tetramer^+ gate / clonotype frequency in bulk repertoire, Patient 5, t-test p < 0.0001 between antigens), the “mean enrichment ratio of tetramer-associated clonotypes” value is given as 1.04×10^1.
NLVPMVATV [pp65NLV, reference compound]: in test [2], the “total share of tetramer-associated TCRβ clonotypes in TCRβ repertoire” value is listed as 0.002%.
